From article PMC8454092 (European Journal of Medicinal Chemistry, 2021)

Experiments:
SARS-CoV-2 = assay type: cell-based; settings: for IC50: read-out: VeroE6 IC50
EBOV trVLP = assay type: cell-based, Ebola virus; settings: for IC50: read-out: EBOV trVLP IC50
X4 strain of HIV-1 = settings: cited from earlier work
SARS-CoV-2 RNA synthesis = assay type: cell-based
EBOV trVLP RNA synthesis = assay type: cell-based, Ebola virus
[1] = human
EBOV infection = settings: in vivo; cited from earlier work
Covid-19 = settings: human, in vivo; cited from earlier work
Ce-FF = assay type: cell-based; settings: read-out: Ce-FF IC50

Which results are given for CCCCCCCCCCOCCC(=O)O [4-Oxatetradecanoic acid, reference compound]?
anti-SARS-CoV-2 activity in Vero E6 cells (SARS-CoV-2): did not exhibit any anti-SARS-CoV-2 activity; activity against EBOV trVLP (EBOV trVLP): no inhibitory activity

Which “fold more activity than FTC” value (X4 strain of HIV-1) does the source give for CCCCCCCCCCCCCC(=O)OC[C@@H]1O[C@H](n2cc(F)c(N)nc2=O)CS1 [5′-O-tetradecanoyl derivative of FTC] here?
The value was 19 fold.

What does the source list for [N-]=[N+]=NCCCCCCCCCCCC(=O)O [12-Azidododecanoic acid, reference compound]?
anti-SARS-CoV-2 activity in Vero E6 cells (SARS-CoV-2): did not exhibit any anti-SARS-CoV-2 activity; activity against EBOV trVLP (EBOV trVLP): no inhibitory activity

For CCSCCCCCCCCCCCC(=O)O [12-thioethyldodecanoic acid, reference compound], which “anti-SARS-CoV-2 activity in Vero E6 cells” value (SARS-CoV-2) is on record?
The value was “did not exhibit any anti-SARS-CoV-2 activity”.

What about the “activity against EBOV trVLP” value (EBOV trVLP) of the same molecule?
Its value is “no inhibitory activity”.

For CCCCCCCCCCCCCC(=O)O[C@@H]1[C@H](O)[C@@H](CO[P@@](=O)(N[C@H](C)C(=O)OCC(CC)CC)Oc2ccccc2)O[C@@]1(C#N)c1ccc2c(N)ncnn12 [Compound 3a, (2R,3R,4R,5R)-2-(4-Aminopyrrolo[2,1-f][1,2,4]triazin-7-yl)-2-cyano-5-((((((R)-1-(2-ethylbutoxy)-1-oxopropan-2-yl)amino)(phenoxy)phosphoryl)oxy)methyl)-4-hydroxytetra-hydrofuran-3-yl tetradecanoate], which “SARS-CoV-2 viral RNA synthesis” value (SARS-CoV-2 RNA synthesis) is on record?
The value was “significant reduction in viral RNA synthesis”.

What about the “EBOV trVLP viral RNA synthesis” value (EBOV trVLP RNA synthesis) of the same molecule?
The value was “significant reduction in viral RNA synthesis”.

For CCCCCCCCCCOCCC(=O)O[C@@H]1[C@H](O)[C@@H](CO[P@@](=O)(N[C@H](C)C(=O)OCC(CC)CC)Oc2ccccc2)O[C@@]1(C#N)c1ccc2c(N)ncnn12 [Compound 3b], which “activity against EBOV trVLP” value (EBOV trVLP) is on record?
The value was “comparable with RDV”.

For CCSCCCCCCCCCCCC(=O)O[C@@H]1[C@H](O)[C@@H](CO[P@@](=O)(N[C@H](C)C(=O)OCC(CC)CC)Oc2ccccc2)O[C@@]1(C#N)c1ccc2c(N)ncnn12 [Compound 3e], which “activity against EBOV trVLP” value (EBOV trVLP) is on record?
The value was “comparable with RDV”.

For CCCCCCCCCCOCCC(=O)O[C@H]1[C@@H](O)[C@](C#N)(c2ccc3c(N)ncnn23)O[C@@H]1CO[P@@](=O)(N[C@H](C)C(=O)OCC(CC)CC)Oc1ccccc1 [Compound 4b, (2R,3S,4R,5R)-5-(4-Aminopyrrolo[2,1-f][1,2,4]triazin-7-yl)-5-cyano-2-((((((R)-1-(2-ethylbutoxy)-1-oxopropan-2-yl)amino)(phenoxy)phosphoryl)oxy)methyl)-4-hydroxy-tetrahydrofuran-3-yl-3-(decyloxy)propanoate], which “activity against EBOV trVLP” value (EBOV trVLP) is on record?
The value was “comparable activity with RDV”.

What about the “SARS-CoV-2 viral RNA synthesis” value (SARS-CoV-2 RNA synthesis) of the same molecule?
The value was “significant reduction in viral RNA synthesis”.

What about the “EBOV trVLP viral RNA synthesis” value (EBOV trVLP RNA synthesis) of the same molecule?
Its value is “significant reduction in viral RNA synthesis”.

Which “active triphosphate metabolite observed at 8 h” value [1] does the source give for CCC(CC)COC(=O)[C@@H](C)N[P@](=O)(OC[C@H]1O[C@@](C#N)(c2ccc3c(N)ncnn23)[C@H](O)[C@@H]1OC(=O)CCCCCCCCCCCN=[N+]=[N-])Oc1ccccc1 [Compound 4c, (2R,3S,4R,5R)-5-(4-Aminopyrrolo[2,1-f][1,2,4]triazin-7-yl)-5-cyano-2-((((((R)-1-(2-ethylbutoxy)-1-oxopropan-2-yl)amino)(phenoxy)phosphoryl)oxy)methyl)-4-hydroxy-tetrahydrofuran-3-yl-12-azidododecanoate] here?
The value was 11.3%.

And the “active triphosphate metabolite observed at 12 h” value [1]?
The value was 10.04%.

What about the “active triphosphate metabolite observed at 24 h” value [1] of the same molecule?
Its value is 19.01%.

With CCCCCCCCCCCCCC(=O)O[C@H]1[C@@H](OC(=O)CCCCCCCCCCCCC)[C@](C#N)(c2ccc3c(N)ncnn23)O[C@@H]1CO[P@@](=O)(N[C@H](C)C(=O)OCC(CC)CC)Oc1ccccc1 [Compound 5a, ((2R,3R,4R,5R)-2-(4-Aminopyrrolo[2,1-f][1,2,4]triazin-7-yl)-2-cyano-5-((((((R)-1-(2-ethylbutoxy)-1-oxopropan-2-yl)amino)(phenoxy)phosphoryl)oxy)methyl)tetrahydro-furan-3,4-diyl ditetradecanoate] as the molecule, how does the “SARS-CoV-2 viral RNA synthesis” value (SARS-CoV-2 RNA synthesis) read?
Its value is “significant reduction in viral RNA synthesis was observed for all compounds apart from disubstituted compound 5a”.

For CCCCCCCCCCCCCC(=O)O [Myristic acid, reference compound], which “anti-SARS-CoV-2 activity in Vero E6 cells” value (SARS-CoV-2) is on record?
The value was “did not exhibit any anti-SARS-CoV-2 activity”.

And the “activity against EBOV trVLP” value (EBOV trVLP)?
Its value is “no inhibitory activity”.

Which results are given for CCC(CC)COC(=O)[C@H](C)N[P@](=O)(OC[C@H]1O[C@@](C#N)(c2ccc3c(N)ncnn23)[C@H](O)[C@@H]1O)Oc1ccccc1 [RDV, remdesivir, reference compound]?
SARS-CoV-2 viral RNA synthesis (SARS-CoV-2 RNA synthesis): significant reduction in viral RNA synthesis; EBOV trVLP viral RNA synthesis (EBOV trVLP RNA synthesis): significant reduction in viral RNA synthesis; active triphosphate metabolite observed at 12 h [1]: approximately 22.2%; active triphosphate metabolite observed at 24 h [1]: 26.3%; degradation after 1 h [1]: around 13%; mortality (EBOV infection): 53%; median time to recovery (Covid-19): 11 days; mortality rate (Covid-19): 7.1%

What does the source list for “(2R,3R,4R,5R)-2-(4-Aminopyrrolo[2,1-f][1,2,4]triazin-7-yl)-2-cyano-5-((((((R)-1-(2-ethylbutoxy)-1-oxopropan-2-yl)amino)(phenoxy)phosphoryl)oxy)methyl)-4-hydroxytetra hydrofuran-3-yl palmitate [Compound 3c]”?
IC50 (SARS-CoV-2): 4.6 µM; IC50 (EBOV trVLP): 0.5 µM; IC50 (Ce-FF): > 50 µM; CC50 (Vero E6 cells): > 50 µM; CC50 (Huh-7 cells): 27 µM

For “(2R,3R,4R,5R)-2-(4-Aminopyrrolo[2,1-f][1,2,4]triazin-7-yl)-2-cyano-5-((((((R)-1-(2-ethylbutoxy)-1-oxopropan-2-yl)amino)(phenoxy)phosphoryl)oxy)methyl)tetrahydrofuran-3,4-diyl ditetradecanoate [Compound 5b]”, which IC50 (SARS-CoV-2) is on record?
Its IC50 is > 50 µM.

What about the “activity against EBOV trVLP” value (EBOV trVLP) of the same molecule?
The value was “no inhibitory activity”.

And the IC50 (EBOV trVLP)?
The IC50 was > 50 µM.

And the IC50 (Ce-FF)?
The IC50 was > 50 µM.

And the “EBOV trVLP viral RNA synthesis” value (EBOV trVLP RNA synthesis)?
Its value is “significant reduction in viral RNA synthesis was observed for all compounds apart from disubstituted compound 5b”.

What about the CC50 (Vero E6 cells) of the same molecule?
The CC50 was > 50 µM.

And the CC50 (Huh-7 cells)?
The CC50 was > 50 µM.

B1: MAB114 (antibody, chains of the INN, looked up, V domains shown)
VH: EVQLVESGGGLIQPGGSLRLSCAASGFALRMYDMHWVRQTIDKRLEWVSAVGPSGDTTYADSVKGRFAVSRENAKNSLSLQMNSLTAGDTAIYYCVRSDRGVAGLFDSWGQGILVTVSS
VL: DIQMTQSPSSLSASVGDRITITCRASQAFDNYVAWYQQRPGKVPKLLISAASALHAGVPSRFSGSGSGTHFTLTISSLQPEDVATYYCQNYNSAPLTFGGGTKVEIK
Which mortality (EBOV infection) does the source give for B1 here?
Its mortality is 35%.
